In data set [1] the target is T1, Signal transducer and activator of transcription 5A (Homo sapiens, UniProt P42229).
T1 sequence (P42229 whole entry): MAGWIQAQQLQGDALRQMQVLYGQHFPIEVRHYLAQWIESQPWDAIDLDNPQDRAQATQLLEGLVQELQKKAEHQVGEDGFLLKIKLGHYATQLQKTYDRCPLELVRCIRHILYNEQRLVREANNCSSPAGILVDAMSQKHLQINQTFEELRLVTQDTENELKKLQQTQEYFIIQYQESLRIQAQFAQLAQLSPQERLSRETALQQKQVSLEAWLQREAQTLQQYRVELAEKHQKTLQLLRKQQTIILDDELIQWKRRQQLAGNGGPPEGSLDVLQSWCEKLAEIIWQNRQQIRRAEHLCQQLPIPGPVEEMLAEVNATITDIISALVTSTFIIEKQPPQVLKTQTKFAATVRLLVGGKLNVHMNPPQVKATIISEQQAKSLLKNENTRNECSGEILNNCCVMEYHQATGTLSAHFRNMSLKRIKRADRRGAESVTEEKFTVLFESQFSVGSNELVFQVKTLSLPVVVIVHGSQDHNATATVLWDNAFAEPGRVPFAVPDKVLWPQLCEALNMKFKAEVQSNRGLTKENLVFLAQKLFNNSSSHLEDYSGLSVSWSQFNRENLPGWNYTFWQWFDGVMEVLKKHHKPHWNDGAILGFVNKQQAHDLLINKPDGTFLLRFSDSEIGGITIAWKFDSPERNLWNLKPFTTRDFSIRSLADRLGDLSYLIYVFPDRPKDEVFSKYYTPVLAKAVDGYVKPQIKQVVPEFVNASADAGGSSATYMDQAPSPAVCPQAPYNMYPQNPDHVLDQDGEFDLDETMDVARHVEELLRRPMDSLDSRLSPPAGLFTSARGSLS
The experiment in a line: Induction of STAT5 degradation in human SKNO-1 cells measured for 18 hrs by Western blot analysis. Type of data set: cell-based.

Data set [2] concerns SKNO-1. The experiment in a line: Effect on STAT1 level in human SKNO-1 cells upto 5 uM measured for 18 hrs by Western blot analysis. Type of data set: functional, cell-based. In general terms: A western blot detects proteins with antibodies after separation by electrophoresis.
Data set [3] has as its system SKNO-1. The experiment in a line: Effect on STAT3 level in human SKNO-1 cells upto 5 uM measured for 18 hrs by Western blot analysis. Type of data set: functional, cell-based.
Data set [4] concerns SKNO-1. The experiment in a line: Effect on STAT6 level in human SKNO-1 cells upto 5 uM measured for 18 hrs by Western blot analysis. The format is functional, cell-based.
The test system of data set [5] is MV4-11. The experiment in a line: Effect on STAT2 level in human MV4-11 cells upto 5 uM measured for 18 hrs by Western blot analysis. The format is functional, cell-based.
For data set [6], the system named is MV4-11. The experiment in a line: Effect on STAT3 level in human MV4-11 cells upto 5 uM measured for 18 hrs by Western blot analysis. Type of data set: functional, cell-based.
In data set [7] the test system is MV4-11. The experiment in a line: Effect on STAT6 level in human MV4-11 cells upto 5 uM measured for 18 hrs by Western blot analysis. The format is functional, cell-based.
Data set [8] has as its system MV4-11. The experiment in a line: Antiproliferative activity against human MV4-11 cells assessed as cell growth inhibition measured for 4 days by celltiter-glo assay. To be noted: MV4-11, 96 h.
A short description of data set [9]: Antiproliferative activity against human Kasumi-3 cells assessed as cell growth inhibition measured for 4 days by celltiter-glo assay. The settings on record: Kasumi-3, 96 h. On the technique in general: Cellular ATP, detected with luciferase, serves as a proxy for viable cell number.
The next data set relates to RS4-11. The experiment in a line: Antiproliferative activity against human RS4-11 cells assessed as cell growth inhibition measured for 4 days by celltiter-glo assay. To be noted: RS4-11, 96 h.
Data set [10] has as its system OCI-AML2. The experiment in a line: Antiproliferative activity against human OCI-AML2 cells assessed as cell growth inhibition measured for 4 days by celltiter-glo assay. To be noted: OCI-AML2, 96 h.
A short description of data set [11]: Antiproliferative activity against human OCI-M2 cells assessed as cell growth inhibition measured for 4 days by celltiter-glo assay. The settings on record: OCI-M2, 96 h.
Data set [12] can be described thus: Antiproliferative activity against human BDCM cells assessed as cell growth inhibition measured for 4 days by celltiter-glo assay. The settings on record: 96 h.
The test system of data set [13] is MV4-11. The experiment in a line: Antiproliferative activity against human MV4-11 cells assessed as maximal cell growth inhibition measured for 4 days by celltiter-glo assay relative to control. Type of data set: functional. To be noted: time 4 day.
The subject of data set [14] is OCI-AML2. The experiment in a line: Antiproliferative activity against human OCI-AML2 cells assessed as maximal cell growth inhibition measured for 4 days by celltiter-glo assay relative to control. The format is functional. To be noted: time 4 day.
The test system of another data set is MOLM-13. The experiment in a line: Antiproliferative activity against human MOLM-13 cells assessed as maximal cell growth inhibition measured for 4 days by celltiter-glo assay relative to control. Type of data set: functional. The settings on record: time 4 day.
Data set [15] in a line: Apparent volume of distribution in SCID mouse at 150 mg/kg, ip. Type of data set: ADME, organism-based. The settings on record: in vivo.
A short description of data set [16]: In vivo induction of degradation of STAT5 in human MV4-11 cells xenografted in SCID mouse assessed as reduction in STAT5 levels at 150 mg/kg, ip measured at 1 to 24 hrs by immunoblotting analysis. Type of data set: functional. The arrangement: scale not given: the % may be the effect or the level left. The settings on record: time 1-24 hrs. (A xenograft is tissue or cells of one species grown in another, often human tumour cells in immunodeficient mice.)

For data set [17], the system named is MV4-11. The experiment in a line: Antitumor activity against human MV4-11 cells xenografted in SCID mouse assessed as tumor growth inhibition at 200 mg/kg, ip administered 5 days a week for 3 weeks. To be noted: MV4-11, 504 h, read-out: TGI. Type of data set: functional.
A short description of data set [18]: Toxicity in SCID mouse assessed as body weight loss at 50 to 200 mg/kg, ip administered 5 days a week for 3 weeks. Type of data set: organism-based. The settings on record: in vivo, 504 h, dose 50-200 mg/kg.
The target of data set [19] is T2, STAT5A/STAT5B (Homo sapiens, UniProt P42229+P51692).
T2 sequence (P42229 whole entry): T1 sequence (P42229 whole entry)
T2 sequence (P51692 whole entry): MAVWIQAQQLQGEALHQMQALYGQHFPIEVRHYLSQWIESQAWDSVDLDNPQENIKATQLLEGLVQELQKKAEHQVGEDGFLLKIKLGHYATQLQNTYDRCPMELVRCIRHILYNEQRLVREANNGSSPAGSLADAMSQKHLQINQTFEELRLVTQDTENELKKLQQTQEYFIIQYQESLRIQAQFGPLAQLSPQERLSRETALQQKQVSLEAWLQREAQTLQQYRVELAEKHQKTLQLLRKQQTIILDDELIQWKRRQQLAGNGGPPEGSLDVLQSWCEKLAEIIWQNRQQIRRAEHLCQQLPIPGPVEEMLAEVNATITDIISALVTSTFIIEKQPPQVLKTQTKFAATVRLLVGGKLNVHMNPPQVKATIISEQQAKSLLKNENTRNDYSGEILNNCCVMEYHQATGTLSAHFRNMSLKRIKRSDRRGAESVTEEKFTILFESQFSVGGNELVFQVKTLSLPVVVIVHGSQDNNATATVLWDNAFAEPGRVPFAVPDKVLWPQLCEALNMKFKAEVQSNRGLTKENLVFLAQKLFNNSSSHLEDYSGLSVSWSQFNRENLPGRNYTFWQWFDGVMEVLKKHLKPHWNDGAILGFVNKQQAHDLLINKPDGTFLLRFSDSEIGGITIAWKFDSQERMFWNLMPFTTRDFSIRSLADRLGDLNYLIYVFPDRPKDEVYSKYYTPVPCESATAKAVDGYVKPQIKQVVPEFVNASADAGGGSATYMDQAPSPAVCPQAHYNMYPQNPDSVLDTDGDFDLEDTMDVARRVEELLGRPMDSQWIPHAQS
The experiment in a line: Induction of STAT5A/5B degradation in human OCI-AML2 cells measured for 18 hrs by immunoblotting analysis. The format is cell-based.

The target of data set [20] is T2, STAT5A/STAT5B. The experiment in a line: Induction of STAT5A/5B degradation in human OCI-M2 cells measured for 18 hrs by immunoblotting analysis. The format is cell-based.

Calls of active or inactive are those of the source. The calls are words filed in the database; no cut-off is given here.

For orientation: DC50 means the midpoint of the concentration-degradation curve. What is called IC50 is the point on the concentration scale where inhibition reaches its midpoint. Take `CN(CCCC#Cc1cccc2c1CN(C1CCC(=O)NC1=O)C2=O)C(=O)CCN(C(=O)[C@@H]1CCCN1C(=O)[C@@H](NC(=O)c1cc2cc(C(F)(F)P(=O)(O)O)ccc2s1)C(C)(C)C)c1ccc(-c2nccs2)cc1` (some centres not stated): the 50% degradation concentration (DC50) in data set [1] came to 100 nM; at STAT5A/STAT5B [19] it was 0.28 µM; on STAT5A/STAT5B [20] it was 0.7 µM. Also, the outcome with SKNO-1 [2], in the data set with SKNO-1 [3], in the data set on SKNO-1 [4], in the data set on MV4-11 [5], in the data set with MV4-11 [6] and with MV4-11 [7] was inactive. The IC50 was 180 nM in the data set on MV4-11 [8]; 350 nM in data set [9]; > 15 µM with RS4-11; > 15 µM in the data set with OCI-AML2 [10]; > 15 µM in data set [11]; > 15 µM in [12]. In addition, the Imax is 65% in the data set on MV4-11 [13], <5% with OCI-AML2 [14] and <5% with MOLM-13. The Vz in [15] was found to be 2.1 L/kg. Moreover, the Activity in data set [16] is given as >95%; in data set [18] it was “Non-Toxic”. For the same compound, in the data set with MV4-11 [17], the inhibition in vivo at 200 mg/kg came to 80%.
